Values of other authors as cited in patent US20110014269A1, “CIVAMIDE PATCH FOR LOCALIZED POST-INCISIONAL NEUROPATHIC PAIN” (WINSTON LABORATORIES, INC., priority 2009, published 2011).

Settings: treatment of painful, inflammatory or allergic disorders

## COc1cc(CNC(=O)CCCC/C=C\C(C)C)ccc1O [Civamide, cis-8-methyl-N-vanillyl-6-nonenamide]
  burning and stinging relative to capsaicin's use: significantly less
